Test results: US20080108894A1, “Methods and Systems of Analyzing Clinical Parameters and Methods of Producing Visual Images” (priority 2004, published 2008)
“Also recorded” adds a separate entry of the source.

Key:
[1] = system: infarcted myocardium; test: R1 mapping with SI0 map 20 minutes after Gd(DTPA) in dogs 48 h after reperfusion of myocardial infarction; type: in vivo, dog
Procedure: In three dogs (n=3), weighing 18-20 kg, myocardial infarctions (MI) were generated by a 180-minute closed-chest coronary artery occlusion. Forty-eight hours following reperfusion, baseline R10 map and SI0-map (see below) were generated using the inversion-recovery (IR) technique with multiple inversion times (TI) (FIG. 6). Delayed-Enhancement (DE) imaging was carried out exactly 15 minutes after Gd(DTPA) (0.2 mmol/kg) administration. Baseline parametric R10 maps, and corresponding SI0 maps, that cover the left ventricle (LV), in a dog 48 h after myocardial infarction, are shown in FIG. 6. R1 was calculated from the SI vs. TI dependence as detailed herein. The calculated baseline relaxation rate of myocardium was R10=1.03±0.05 s^−1, which was later used for calculating the PIM. For the purpose of generating PIMs, 20 minutes after the administration of Gd(DTPA), high resolution images of the entire heart were acquired with two TIs using the same image localizations and sequence parameters (except the TI) as for the baseline R10 and SI0 maps. Details of selecting the optimum TIs are discussed further below. From these images and from the corresponding SI0 maps, voxel-by-voxel R1 maps were generated. Average R1 values in remote myocardium and infarct core were R1=1.73±0.07 s^−1, and R1=3.22±0.09 s^−1, respectively. R1 in LV chamber blood was R1=2.53±0.05 s^−1. ΔR1 (ΔR1=R1−R10) was calculated automatically for each voxel utilizing the baseline R10 map. Average ΔR1r in the remote viable regions was 0.7±0.07 s^−1, while in the center of the infarct (denoted 100% infarcted) ΔR1c was 2.19±0.09 s^−1. The contribution of any contrast-agent-accumulating infarct islet contributes to the total ΔR1 of that voxel. Therefore, ΔR1 is proportional to the amount of non-viable tissue present in any given voxel. Thus, a percent infarct (PI) scale was created, where the core ΔR1c (maximum R1 enhancement observed in the center of the infarct) was considered 100% whereas the ΔR1r of remote areas was 0%. In the canine model used in the present disclosure, the myocardial infarct was generated by prolonged proximal occlusion of the Left Anterior Descending coronary artery, using an intracoronary balloon catheter. Animals were anesthetized and mechanically ventilated during MRI sessions (using isoflurane). A 1.5 Tesla GE Signa Horizon “Cardiac CV” instrument was used for cardiac MRI. Images were generated in standard consecutive short-axis planes (6 slices covering the entire LV) and one additional three-chamber long-axis view to assess the apex (left ventricular outflow tract view).

[2] = system: infarcted myocardium; test: R1 mapping (inversion recovery MRI) 24 h and 48 h after PCA in canine reperfused myocardial infarction; type: in vivo, dog; details: for Average R1r (R1 in remote regions) / Average ΔR1r (ΔR1 in remote regions): remote myocardium
Source text: In FIG. 2, multislice voxel-by-voxel R1 maps (A) and PIMs (B), generated from such images, are shown. The good quality and coregistration of images acquired with varying TI, was confirmed by the R^2 values obtained for the pixel-by-pixel curve-fitting applied to the SI vs. TI dependence. Average R^2 in the myocardium was 0.99±0.005.
Average R10 was 0.98±0.05 s^−1, in agreement with other investigators' findings. […] This proves Gd(ABE-DTTA) to be a PCA suitable for multi-T1 R1 mapping.
In the canine model used in the present disclosure, the myocardial infarct was generated by prolonged proximal occlusion of the Left Anterior Descending coronary artery, using an intracoronary balloon catheter. Animals were anesthetized and mechanically ventilated during MRI sessions (using isoflurane).
A 1.5 Tesla GE Signa Horizon “Cardiac CV” instrument was used for cardiac MRI. Images were generated in standard consecutive short-axis planes (6 slices covering the entire LV) and one additional three-chamber long-axis view to assess the apex (left ventricular outflow tract view).
A 180°-prepared, segmented, fast gradient-echo sequence, was used to determine R1 values of the myocardium using the inversion recovery method. Short axis and long axis images were generated using the following parameters: FOV 300 mm, image matrix 256×256, slice thickness 10 mm, read out flip angle 25°, echo time (TE) 3.32 ms, repetition time (TRp) 7.18 ms, and recycle time (TR) 1200-2000 ms (three R-R intervals, depending on heart rate, but constant throughout an entire given R1 mapping procedure). Inversion times (TI) in the range of 200-1200 ms were used. In theory, 6 different TIs should be sufficient to generate a R1 map. In this disclosure, however, 8-10 TIs were used to ensure accuracy of R1 determination. The R1 values were calculated from the SI vs. TI dependence, applying a three-parameter least-squares curve fitting routine, using the following formula: […]
Since all MRI parameters below reflect the entire volume element in the slice, associated with a given pixel, from this point on the term voxel, rather than pixel, will be used.). The relaxation rate R1 (R1≡1/T1) of each voxel was composed of R10, the myocardial R1 observed in the absence of both infarct and PCA, and ΔR1, the contribution of the PCA present in the voxel:
Using Eq. 2, the R1 map was transformed into a ΔR1 map. The average ΔR1r value of areas remote from the infarct zone (about 600 voxels), was considered representative of 0% infarction.
As a threshold, ΔR1v of all remote voxels where R1v<R1r+2SD, was set to zero.

[3] = 20 minutes after Gd(DTPA) 0.2 mmol/kg
[4] = 20 minutes after Gd(DTPA), ΔR1=R1−R10

Compound	Average R1 in infarct core [1, 3]	Average R1 in remote myocardium [1, 3]	R1 in LV chamber blood [1, 3]	Average ΔR1r in the remote viable regions [1, 4]	ΔR1c in the center of the infarct (denoted 100% infarcted) [1, 4]	Average R1c (R1 in infarct core) ([2]; 24 h after PCA)	Average ΔR1c (ΔR1 in infarct core) ([2]; 24 h after PCA)	Average R1r (R1 in remote regions) ([2]; 24 h after PCA)	Average ΔR1r (ΔR1 in remote regions) ([2]; 24 h after PCA)	Average R1c (R1 in infarct core) ([2]; 48 h after PCA)	Average ΔR1c (ΔR1 in infarct core) ([2]; 48 h after PCA)	Average R1r (R1 in remote regions) ([2]; 48 h after PCA)	Average ΔR1r (ΔR1 in remote regions) ([2]; 48 h after PCA)	hourly change in R1 in all myocardial areas ([2]; between 24 and 48 hours post PCA)	persistence of ΔR1 / agent in the infarct ([2]; infarct region, after a single administration)	hourly change in R1 ([2]; viable tissue, between 24 and 48 hours post PCA, interpolated)	rate of decay in the infarct ([2]; within the acquisition time frame of about 30-40 minutes)
O=C([O-])CN(CCN(CC(=O)[O-])CC(=O)O)CCN(CC(=O)[O-])CC(=O)O.[Gd+3] [Gd(DTPA)]	3.22 ± 0.09 s⁻¹	1.73 ± 0.07 s⁻¹	2.53 ± 0.05 s⁻¹	0.7 ± 0.07 s⁻¹	2.19 ± 0.09 s⁻¹	–	–	–	–	–	–	–	–	–	–	–	–
Gd(ABE-DTTA)	–	–	–	–	–	2.33 ± 0.5 s⁻¹	1.21 ± 0.5 s⁻¹	1.23 ± 0.06 s⁻¹	0.26 ± 0.03 s⁻¹	2.31 ± 0.4 s⁻¹	1.27 ± 0.3 s⁻¹	1.15 ± 0.08 s⁻¹	0.18 ± 0.05 s⁻¹	less than one percent of the measured R1	observable throughout the first week from administration; also recorded: still observable in the infarct region one week after administration	0.26±0.1 percent/hour	less than 1 % of R1
